The record followed here is patent publication US12391737B2, “Soluble NPY2 receptor agonists” (Boehringer Ingelheim International GmbH, priority 2020, dated 2025).

Series [1] addresses T1, Human Neuropeptide Y2 Receptor (Homo sapiens, UniProt P49146).
T1 construct: purchased CHEMICON HTS066M
T1 sequence (P49146 1-381): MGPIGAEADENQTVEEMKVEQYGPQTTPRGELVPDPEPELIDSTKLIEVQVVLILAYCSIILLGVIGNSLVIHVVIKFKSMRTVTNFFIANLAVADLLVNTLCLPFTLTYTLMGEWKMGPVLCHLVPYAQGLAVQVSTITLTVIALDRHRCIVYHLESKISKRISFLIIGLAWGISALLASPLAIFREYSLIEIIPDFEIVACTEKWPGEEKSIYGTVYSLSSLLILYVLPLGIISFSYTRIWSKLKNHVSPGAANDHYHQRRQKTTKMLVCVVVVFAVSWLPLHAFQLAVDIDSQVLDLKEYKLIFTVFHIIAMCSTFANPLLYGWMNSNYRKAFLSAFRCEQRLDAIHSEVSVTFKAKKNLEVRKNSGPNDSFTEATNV
Nature of the series: Radioligand binding competition assay (RLB). As to conditions: Table 3, 125I-PYY(1-36) competition; read-out: Ki. Put shortly:
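Peptides were serially diluted from 1 mM DMSO stocks and competed for radioligand binding to receptor membranes (0.5 μg/well) over 2 h at room temperature, pH 7.4 HEPES buffer. Bound radioactivity on filters was counted by scintillation, and IC50 was derived by nonlinear regression.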

A further series in a line: Solubility determination. As to conditions: for Sol6: pH 6; for Sol7: pH 7. Put shortly: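 Shake-flask style: 10 mg/ml peptide (TFA salt), 0.1 M sodium diphosphate pH 6.4/7.0, 600 rpm, 2 h, RT; filter; dilute 1 mg/ml in 50% MeCN; RP-UPLC, 0–100% B over 2 min, 50 °C. Solubility = sample/control area ratio. Final pH recorded.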

A word on the Ki: it is a dissociation constant, usually derived from enzyme kinetics or from competition with a known ligand.

*1 amine or outer side, *2 acyl side, *3 side chain or, on linkers, in order; H or OH if unused. Where a SMILES comes first, the peptide text is derived from it. Side-chain parts run from the residue outwards. The star is where a group is joined. C18 diacid = O=C(O)CCCCCCCCCCCCCCCCC(=O)*; γGlu = O=C(O)[C@H](CCC(=O)[*:2])N[*:1]; Isovaleryl = CC(C)CC(=O)*; Ahx = NCCCCCC(=O)O A value given as a limit tells only on which side of the number the result lay.

As to `CC(C)CC(=O)N[C@@H](C)C(=O)N1CCC[C@H]1C(=O)N[C@@H](CCC(=O)O)C(=O)N[C@@H](CCCCNC(=O)CCCCCNC(=O)CC[C@H](NC(=O)CCCCCCCCCCCCCCCCC(=O)O)C(=O)O)C(=O)N1CCC[C@H]1C(=O)N1CCC[C@H]1C(=O)N[C@@H](C)C(=O)N[C@@H](CC(=O)O)C(=O)N[C@@H](C)C(=O)N[C@@H](CO)C(=O)N1CCC[C@H]1C(=O)N[C@@H](CCC(=O)O)C(=O)N[C@@H](CCC(=O)O)C(=O)N[C@H](C(=O)N[C@@H](CCC(N)=O)C(=O)N[C@@H](CCCNC(=N)N)C(=O)N[C@@H](Cc1ccc(O)cc1)C(=O)N[C@@H](Cc1ccc(O)cc1)C(=O)N[C@H](C(=O)N[C@@H](CO)C(=O)N[C@@H](CC(C)C)C(=O)N[C@@H](CCCNC(=N)N)C(=O)N[C@@H](Cc1c[nH]cn1)C(=O)N[C@@H](Cc1ccc(O)cc1)C(=O)N[C@@H](Cc1ccc(O)cc1)C(=O)N[C@@H](CC(N)=O)C(=O)N[C@@H](Cc1c[nH]c2ccccc12)C(=O)N[C@@H](CC(C)C)C(=O)N[C@H](C(=O)N[C@@H](CCCNC(=N)N)C(=O)N[C@@H](CCC(N)=O)C(=O)N[C@@H](CCCNC(=N)N)C(=O)N[C@@H](Cc1ccc(O)cc1)C(N)=O)[C@@H](C)O)C(C)C)[C@@H](C)O` [Compound 69, N{alpha-4}-(3-methylbutanoyl)-N{epsilon-7}-(6-[(4S)-4-carboxy-4-(17-carboxyheptadecanamido)butanamido]hexanoyl)-[4A,7K,9P,10A,17T,18Q,22V,28Y,30W,31L]-hPYY(4-36)] (Isovaleryl-APEK([Ahx-γGlu-C18 diacid])PPADASPEETQRYYVSLRHYYNWLTRQRY-NH2), the Ki in series [1] is 0.54 nM. For the same compound, in “Solubility determination”, the “Sol6” value was determined as 0.1 mg/mL and the “Sol7” value stood at 9.5 mg/mL.
The matching figures for `CC(C)CC(=O)N[C@@H](C)C(=O)N1CCC[C@H]1C(=O)N[C@@H](CCC(=O)O)C(=O)N[C@@H](CCCCNC(=O)CCCCCNC(=O)CC[C@H](NC(=O)CCCCCCCCCCCCCCCCC(=O)O)C(=O)O)C(=O)N1CCC[C@H]1C(=O)N[C@@H](CCC(=O)O)C(=O)N[C@@H](CCC(=O)O)C(=O)N[C@@H](C)C(=O)N[C@@H](C)C(=O)N[C@@H](CO)C(=O)N1CCC[C@H]1C(=O)N[C@@H](CCC(=O)O)C(=O)N[C@@H](CCC(=O)O)C(=O)N[C@@H](CC(C)C)C(=O)N[C@@H](CCC(N)=O)C(=O)N[C@@H](CCCNC(=N)N)C(=O)N[C@@H](Cc1ccc(O)cc1)C(=O)N[C@@H](Cc1ccc(O)cc1)C(=O)N[C@H](C(=O)N[C@@H](C)C(=O)N[C@@H](CC(C)C)C(=O)N[C@@H](CCCNC(=N)N)C(=O)N[C@@H](Cc1c[nH]cn1)C(=O)N[C@@H](Cc1ccc(O)cc1)C(=O)N[C@@H](Cc1ccc(O)cc1)C(=O)N[C@@H](CC(N)=O)C(=O)N[C@@H](Cc1c[nH]c2ccccc12)C(=O)N[C@@H](CC(C)C)C(=O)N[C@H](C(=O)N[C@@H](CCCNC(=N)N)C(=O)N[C@@H](CCC(N)=O)C(=O)N[C@@H](CCCNC(=N)N)C(=O)N[C@@H](Cc1ccc(O)cc1)C(N)=O)[C@@H](C)O)C(C)C` [Compound 73, N{alpha-4}-(3-methylbutanoyl)-N{epsilon-7}-(6-[(4S)-4-carboxy-4-(17-carboxyheptadecanamido)butanamido]hexanoyl)-[4A,7K,9E,11A,18Q,22V,23A,28Y,30W,31L]-hPYY(4-36)]: 2.16 nM, 8.6 mg/mL and 8.2 mg/mL.
As to `CC(C)CC(=O)N[C@@H](C)C(=O)N1CCC[C@H]1C(=O)N[C@@H](C)C(=O)N[C@@H](CCCCNC(=O)CCCCCNC(=O)CC[C@H](NC(=O)CCCCCCCCCCCCCCCCC(=O)O)C(=O)O)C(=O)N1CCC[C@H]1C(=O)N[C@@H](CCC(=O)O)C(=O)N[C@@H](CCC(=O)O)C(=O)N[C@@H](CC(=O)O)C(=O)N[C@@H](C)C(=O)N[C@@H](CO)C(=O)N1CCC[C@H]1C(=O)N[C@@H](CCC(=O)O)C(=O)N[C@@H](CCC(=O)O)C(=O)N[C@@H](CC(C)C)C(=O)N[C@@H](CCC(N)=O)C(=O)N[C@@H](CCCNC(=N)N)C(=O)N[C@@H](Cc1ccc(O)cc1)C(=O)N[C@@H](Cc1ccc(O)cc1)C(=O)N[C@H](C(=O)N[C@@H](CO)C(=O)N[C@@H](CC(C)C)C(=O)N[C@@H](CCCNC(=N)N)C(=O)N[C@@H](Cc1c[nH]cn1)C(=O)N[C@@H](Cc1ccc(O)cc1)C(=O)N[C@@H](CCC(N)=O)C(=O)N[C@@H](CC(N)=O)C(=O)N[C@@H](Cc1c[nH]c2ccccc12)C(=O)N[C@@H](CC(C)C)C(=O)N[C@H](C(=O)N[C@@H](CCCNC(=N)N)C(=O)N[C@@H](CCC(N)=O)C(=O)N[C@@H](CCCNC(=N)N)C(=O)N[C@@H](Cc1ccc(O)cc1)C(N)=O)[C@@H](C)O)C(C)C` [Compound 77, N{alpha-4}-(3-methylbutanoyl)-N{epsilon-7}-(6-[(4S)-4-carboxy-4-(17-carboxyheptadecanamido)butanamido]hexanoyl)-[4A,6A,7K,9E,18Q,22V,28Q,30W,31L]-hPYY(4-36)], the Ki in series [1] was found to be 9.73 nM. In addition, in “Solubility determination”, the “Sol6” value is over 10.0 mg/mL and the “Sol7” value stood at 9.0 mg/mL.
The matching figures for `CC(C)CC(=O)N[C@@H](C)C(=O)N1CCC[C@H]1C(=O)N[C@@H](CCC(=O)O)C(=O)N[C@@H](CCCCNC(=O)CCCCCNC(=O)CC[C@H](NC(=O)CCCCCCCCCCCCCCCCC(=O)O)C(=O)O)C(=O)N1CCC[C@H]1C(=O)N[C@@H](CCC(=O)O)C(=O)N[C@@H](CCC(=O)O)C(=O)N[C@@H](CC(=O)O)C(=O)N[C@@H](C)C(=O)N[C@@H](CO)C(=O)N[C@@H](CCC(=O)O)C(=O)N[C@@H](C)C(=O)N[C@@H](CCC(=O)O)C(=O)N[C@@H](CC(C)C)C(=O)N[C@@H](CCC(N)=O)C(=O)N[C@@H](CCCNC(=N)N)C(=O)N[C@@H](Cc1ccc(O)cc1)C(=O)N[C@@H](Cc1ccc(O)cc1)C(=O)N[C@H](C(=O)N[C@@H](CO)C(=O)N[C@@H](CC(C)C)C(=O)N[C@@H](CCCNC(=N)N)C(=O)N[C@@H](Cc1c[nH]cn1)C(=O)N[C@@H](Cc1ccc(O)cc1)C(=O)N[C@@H](Cc1ccc(O)cc1)C(=O)N[C@@H](CC(N)=O)C(=O)N[C@@H](Cc1c[nH]c2ccccc12)C(=O)N[C@@H](CC(C)C)C(=O)N[C@H](C(=O)N[C@@H](CCCNC(=N)N)C(=O)N[C@@H](CCC(N)=O)C(=O)N[C@@H](CCCNC(=N)N)C(=O)N[C@@H](Cc1ccc(O)cc1)C(N)=O)[C@@H](C)O)C(C)C` [Compound 80, N{alpha-4}-(3-methylbutanoyl)-N{epsilon-7}-(6-[(4S)-4-carboxy-4-(17-carboxyheptadecanamido)butanamido]hexanoyl)-[4A,7K,9E,14E,15A,18Q,22V,28Y,30W,31L]-hPYY(4-36)]: 4.62 nM, 8.1 mg/mL and 8.2 mg/mL.
